Data taken from patent US11198687B2, “Heteroaryl allosteric modulators of nicotinic acetylcholine receptors” (Merck Sharp & Dohme Corp., priority 2017, dated 2021).
Read-outs that look alike come from different tables or passages of the source.

Target: human α7 nAChR (Homo sapiens, UniProt P36544)
Assay: Automated patch-clamp electrophysiology functional assay (Assay A)
Type: cell-based
Conditions: IonFlux HT whole-cell population patch, HEK cell line stably expressing human RIC-3 and human α7, 40 μM acetylcholine
Outline: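 Whole-cell population patch clamp at room temperature on HEK cells stably expressing human α7 and RIC-3, held at −60 mV. Compounds tested at three ascending concentrations per recording, with or without 40 μM acetylcholine; currents quantified relative to an initial 1 s 40 μM acetylcholine response; EC50 from concentration series.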

human α7 nAChR, sequence (P36544 23-502): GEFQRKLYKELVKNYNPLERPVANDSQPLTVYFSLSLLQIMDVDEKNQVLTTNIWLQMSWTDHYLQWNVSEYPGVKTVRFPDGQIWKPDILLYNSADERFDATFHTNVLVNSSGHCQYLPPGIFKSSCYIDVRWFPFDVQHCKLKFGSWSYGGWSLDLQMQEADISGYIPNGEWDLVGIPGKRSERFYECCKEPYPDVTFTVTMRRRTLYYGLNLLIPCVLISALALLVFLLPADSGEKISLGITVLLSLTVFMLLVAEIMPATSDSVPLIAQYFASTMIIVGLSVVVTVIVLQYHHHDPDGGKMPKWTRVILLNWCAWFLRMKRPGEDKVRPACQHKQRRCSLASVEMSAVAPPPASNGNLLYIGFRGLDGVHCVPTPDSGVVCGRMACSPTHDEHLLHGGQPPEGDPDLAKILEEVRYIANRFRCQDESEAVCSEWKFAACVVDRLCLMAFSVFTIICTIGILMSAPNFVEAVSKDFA

Row | SMILES | EC50 (read-out: α7 nAChR EC50) | EC50 (read-out: α7 nAChR Potency)
1 | CC1(C)[C@@H](c2ccc(S(N)(=O)=O)nc2)[C@@H]1c1noc(C2CCCC2)n1 (racemic) [Example C2, 5-[trans-3-(5-Cyclopentyl-1,2,4-oxadiazol-3-yl)-2,2-dimethylcyclopropyl]pyridine-2-sulfonamide] | 920 nM | 500 to 5000 nM
2 | CC1(C)[C@@H](c2ccc(S(N)(=O)=O)nc2)[C@@H]1c1nc(-c2cncc(C(F)(F)F)c2)no1 [Example B4, 5-[(1S,3S)-2,2-Dimethyl-3-{3-[5-(trifluoromethyl)pyridin-3-yl]-1,2,4-oxadiazol-5-yl}cyclopropyl]pyridine-2-sulfonamide] | 2500 nM | 500 to 5000 nM
3 | CC1(C)[C@@H](c2ccc(S(N)(=O)=O)cn2)[C@@H]1c1nc(-c2ccccc2)no1 [Example F10, 6-[(1S,3S)-2,2-Dimethyl-3-(3-phenyl-1,2,4-oxadiazol-5-yl)cyclopropyl]pyridine-3-sulfonamide] | 1100 nM | 500 to 5000 nM
4 | CC1(C)[C@H](c2ccc(S(N)(=O)=O)cn2)[C@H]1c1nc(-c2cccc(F)c2)no1 [Example E1, 6-{(1R,3R)-3-[3-(3-Fluorophenyl)-1,2,4-oxadiazol-5-yl]-2,2-dimethylcyclopropyl}pyridine-3-sulfonamide] | 4000 nM | 500 to 5000 nM
5 | CC1(C)[C@@H](c2ccc(S(N)(=O)=O)nc2)[C@@H]1c1ncc(-c2ccccc2)o1 [Example 8, 5-[(1S,3S)-2,2-Dimethyl-3-(5-phenyl-1,3-oxazol-2-yl)cyclopropyl]pyridine-2-sulfonamide] | 1500 nM | 500 to 5000 nM
6 | CC1(C)[C@H](c2ccc(S(N)(=O)=O)cn2)[C@H]1c1nc(-c2ccc(F)cc2F)no1 [Example E5, 6-{(1R,3R)-3-[3-(2,4-Difluorophenyl)-1,2,4-oxadiazol-5-yl]-2,2-dimethylcyclopropyl}pyridine-3-sulfonamide] | 1300 nM | 500 to 5000 nM
7 | CC1(C)[C@@H](c2ccc(S(N)(=O)=O)cn2)[C@@H]1c1nc(C2CC(F)(F)C2)no1 [Example F12, 6-{(1S,3S)-3-[3-(3,3-Difluorocyclobutyl)-1,2,4-oxadiazol-5-yl]-2,2-dimethylcyclopropyl}pyridine-3-sulfonamide] | 1900 nM | 500 to 5000 nM
8 | CC1(C)[C@@H](c2ccc(S(N)(=O)=O)nc2)[C@@H]1c1nnc(-c2ccc(F)cc2F)s1 (relative stereo) [Example 2, 5-{trans-3-[5-(2,4-Difluorophenyl)-1,3,4-thiadiazol-2-yl]-2,2-dimethylcyclopropyl}pyridine-2-sulfonamide] | 480 nM | 100 to 500 nM
9 | CC1(C)[C@@H](c2ccc(S(N)(=O)=O)nc2)[C@@H]1c1nc(-c2ccccc2)no1 [Example 3, 5-[(1S,3S)-2,2-Dimethyl-3-(3-phenyl-1,2,4-oxadiazol-5-yl)cyclopropyl]pyridine-2-sulfonamide] | 380 nM | 100 to 500 nM
10 | CC1(C)[C@H](c2ccc(S(N)(=O)=O)nc2)[C@H]1c1ncc(C2CCCC2)o1 [Example A4, 5-[(1R,3R)-3-(5-Cyclopentyl-1,3-oxazol-2-yl)-2,2-dimethylcyclopropyl]pyridine-2-sulfonamide] | 3200 nM | 500 to 5000 nM
11 | CC1(C)C(c2ccc(S(N)(=O)=O)nc2)C1c1cc(-c2cccc(F)c2)on1 (single isomer, unassigned) [Example 13, 5-{trans-3-[5-(3-Fluorophenyl)isoxazol-3-yl]-2,2-dimethylcyclopropyl}pyridine-2-sulfonamide] | 770 nM | 500 to 5000 nM
12 | CC1(C)C(c2ccc(S(N)(=O)=O)nc2)C1c1nc2ccccc2o1 (racemic) [Example C4, 5-[trans-3-(1,3-Benzoxazol-2-yl)-2,2-dimethylcyclopropyl]pyridine-2-sulfonamide] | 5100 nM | 5000 to 50000 nM
13 | CC1(C)[C@H](c2ccc(S(N)(=O)=O)cn2)[C@H]1c1nc(C2CCCC2)no1 [Example E2, 6-[(1R,3R)-3-(3-Cyclopentyl-1,2,4-oxadiazol-5-yl)-2,2-dimethylcyclopropyl]pyridine-3-sulfonamide] | 3200 nM | 500 to 5000 nM
